Test results reported in US9737504B2, “Dihydroorotic and acid dehydrogenase inhibitor” (NAI INC., priority 2012, dated 2017).

How the values were obtained:
[1] = molecular target: T1, human DHOD (Homo sapiens, UniProt Q02127); assay: Measurement of DHOD inhibitory activity (DCIP reduction, end point assay); format: biochemical; conditions: read-out: DHOD inhibition rate (%) 100 nM; 100 nM compound
[2] = molecular target: T1, human DHOD; assay: as above; format: biochemical; conditions: for inhibition at 0.2 µM: read-out: DHOD inhibition rate (%) 200 nM, 200 nM compound; for IC50: read-out: IC50 (nM) human DHOD (HsDHOD)
Method: The compounds of the present invention were used and measured for their DHOD inhibitory activity at concentrations of 200 nM and 1000 nM.
Reduction of DCIP was measured at 600 nm over 20 minutes.

T1 sequence (Q02127 whole entry): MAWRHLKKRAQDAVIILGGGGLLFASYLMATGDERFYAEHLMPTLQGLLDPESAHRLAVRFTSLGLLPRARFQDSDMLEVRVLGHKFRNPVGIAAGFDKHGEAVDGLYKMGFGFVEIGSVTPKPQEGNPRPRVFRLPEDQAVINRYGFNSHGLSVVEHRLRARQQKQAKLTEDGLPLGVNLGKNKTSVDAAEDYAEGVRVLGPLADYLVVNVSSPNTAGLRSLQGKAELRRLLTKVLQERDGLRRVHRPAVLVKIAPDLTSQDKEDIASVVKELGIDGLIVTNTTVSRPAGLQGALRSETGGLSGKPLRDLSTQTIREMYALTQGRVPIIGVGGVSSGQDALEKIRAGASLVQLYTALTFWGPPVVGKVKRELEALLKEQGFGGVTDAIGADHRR

melting point | inhibition at 0.1 µM [1] | inhibition at 0.2 µM [2] | IC50 [2] | SMILES
70 to 71 °C |  |  |  | Cc1c(Cl)c(O)c(CCCCCCCC2CC(=O)C(C)(C)O2)c(O)c1C=O (stereo not drawn) [compound 250, 5-Chloro-2,4-dihydroxy-6-methyl-3-[7-(3,3-dimethyl-4-oxo-2-oxacyclopentyl)heptyl]benzaldehyde]
82 to 83 °C |  |  |  | Cc1c(Cl)c(O)c(CCCCCCCCCCCC(=O)OC(C)C)c(O)c1C=O [215-15-COO^IPr, Isopropyl 12-(3-chloro-5-formyl-2,6-dihydroxy-4-methylphenyl)dodecanate]
72 to 73 °C |  |  |  | CCC(=O)OCCCCCCC/C=C/c1c(O)c(Cl)c(C)c(C=O)c1O [200-13-OCOEt, (E)-9-(3-Chloro-5-formyl-2,6-dihydroxy-4-methylphenyl)-8-nonenyl propionate]
93 to 94 °C |  |  |  | Cc1c(Cl)c(O)c(CCCCCCC(C)C)c(O)c1C=O [279-8, 3-Chloro-4,6-dihydroxy-2-methyl-5-(7-methyloctyl)benzaldehyde]
71 °C |  |  |  | COC(=O)c1cc(Cl)c(O)c(C/C=C(\C)CCC=C(C)C)c1O
 | 100% | 69% | 1050 ± 214 nM | CC(C)=CCC/C(C)=C/Cc1c(O)c(Cl)c(C)c(C=O)c1O [CC-B, (E)-3-Chloro-4,6-dihydroxy-5-(3,7-dimethyl-2,6-octadienyl)-2-methylbenzaldehyde]
 | 90% | 74% | 71 ± 2 nM | CCCCC/C(C)=C/Cc1c(O)c(Cl)c(C)c(C=O)c1O [264-8, (E)-3-Chloro-4,6-dihydroxy-2-methyl-5-(3-methyl-2-octenyl)benzaldehyde]
70 to 71 °C |  |  |  | Cc1c(Cl)c(O)c(CCCCCCCCOC(=O)C(C)(C)C)c(O)c1C=O [215-12-OPiv, 8-(3-Chloro-5-formyl-2,6-dihydroxy-4-methylphenyl)octyl pivalate]
 | 104% | 82% | 67 ± 3 nM | C/C(=C\COC(=O)C(C)(C)C)CC/C(C)=C/Cc1c(O)c(Cl)c(C)c(C=O)c1O [287-12-OPiv, (2E,6E)-8-(3-Chloro-5-formyl-2,6-dihydroxy-4-methylphenyl)-3,6-dimethyl-2,6-octadienyl pivalate]
149 to 150 °C |  |  |  | Cc1c(Cl)c(O)c(CCCCCCCC(=O)O)c(O)c1C=O [215-9-COOH, 8-(3-Chloro-5-formyl-2,6-dihydroxy-4-methylphenyl)octanoic acid]
85 °C |  |  |  | CC(C)=CCC/C(C)=C/Cc1c(O)ccc(C=O)c1O [compound 217, (E)-2,4-Dihydroxy-3-(3,7-dimethyl-2,6-octadienyl)benzaldehyde]
69 to 70 °C |  |  |  | Cc1c(Cl)c(O)c(/C=C/CCCCCCCOC(=O)C(C)(C)C)c(O)c1C=O [200-13-OPiv, (E)-9-(3-Chloro-5-formyl-2,6-dihydroxy-4-methylphenyl)-8-nonenyl pivalate]
130 to 131 °C |  |  |  | Cc1c(Cl)c(O)c(CCCCCCCCCCCC(=O)O)c(O)c1C=O [215-13-COOH, 12-(3-Chloro-5-formyl-2,6-dihydroxy-4-methylphenyl)dodecanoic acid]
62 °C |  |  |  | COC(=O)c1ccc(O)c(C/C=C(\C)CCC=C(C)C)c1O [compound 161, Methyl (E)-3-(3,7-dimethyl-2,6-octadienyl)-2,4-dihydroxybenzoate]
35 to 36 °C |  |  |  | C/C(=C\Cc1c(O)c(Cl)c(C)c(C=O)c1O)CC/C=C(\C)C1OC(C)C(C)O1 (stereo not drawn) [509-11, 3-Chloro-5-((2E,6E)-7-(4,5-dimethyl-1,3-dioxolan-2-yl)-3-methyl-2,6-octadienyl)-4,6-dihydroxy-2-methylbenzaldehyde]
 | 87% | 57% | 146 ± 19 nM | C/C(=C\Cc1c(O)c(Cl)c(C)c(C=O)c1O)CC/C=C/COC(=O)C(C)(C)C [07-11-116-4]
63 to 64 °C |  |  |  | CCC(=O)OCCCCCCCCc1c(O)c(Cl)c(C)c(C=O)c1O [215-12-OCOEt, 8-(3-Chloro-5-formyl-2,6-dihydroxy-4-methylphenyl)octyl propionate]
 | 94% | 58% | 123 ± 18 nM | C/C(=C\Cc1c(O)c(Cl)c(C)c(C=O)c1O)CCCCOC(=O)C(C)(C)C [264-11-OPiv, (5E)-7-(3-Chloro-5-formyl-2,6-dihydroxy-4-methylphenyl)-5-methyl-5-heptenyl pivalate]
46 to 47 °C |  |  |  | COC(=O)c1c(C)cc(O)c(C/C=C(\C)CCC=C(C)C)c1O [compound 146, Methyl (E)-3-(3,7-dimethyl-2,6-octadienyl)-2,4-dihydroxy-6-methylbenzoate]
 | 102% | 72% | 98 ± 5 nM | C/C(=C\Cc1c(O)c(Cl)c(C)c(C=O)c1O)CC/C=C(\C)COC(=O)C(C)(C)C [234-12-OPiv, (2E,6E)-8-(3-Chloro-5-formyl-2,6-dihydroxy-4-methylphenyl)-2,6-dimethyl-2,6-octadienyl pivalate]
49 °C |  |  |  | Cc1c(Cl)c(O)c(CCCCCCCCCC(=O)OC(C)C)c(O)c1C=O [215-13-COO^IPr, Isopropyl 10-(3-chloro-2,6-dihydroxy-5-formyl-4-methylphenyl)decanate]
129 to 130 °C |  |  |  | Cc1c(Cl)c(O)c(CCCCCCCCO)c(O)c1C=O [215-9-OH, 5-Chloro-2,4-dihydroxy-3-(8-hydroxyoctyl)-6-methylbenzaldehyde]
65 to 67 °C |  |  |  | CCCCCC(C)CCc1c(O)c(Cl)c(C)c(C=O)c1O (stereo not drawn) [265-8, 3-Chloro-4,6-dihydroxy-2-methyl-5-(3-methyloctyl)benzaldehyde]
94 to 95 °C |  |  |  | CC(C)=CCC/C(C)=C/Cc1c(O)c(Cl)cc(C=O)c1O [compound 224, (E)-5-Chloro-2,4-dihydroxy-3-(3,7-dimethyl-2,6-octadienyl)benzaldehyde]
63 to 64 °C |  |  |  | Cc1c(Cl)c(O)c(CCCCCCCOC(=O)C(C)(C)C)c(O)c1C=O [215-11-OPiv, 7-(3-Chloro-5-formyl-2,6-dihydroxy-4-methylphenyl)heptyl pivalate]
57 to 58 °C |  |  |  | Cc1c(Cl)c(O)c(/C=C/CCCCCCOC(=O)C(C)(C)C)c(O)c1C=O [200-12-OPiv, (E)-8-(3-Chloro-5-formyl-2,6-dihydroxy-4-methylphenyl)-7-octenyl pivalate]
70 to 72 °C |  |  |  | C/C(=C\Cc1c(O)c(Cl)cc(C=O)c1O)CC/C=C(\C)C1CC(=O)C(C)(C)O1 (stereo not drawn) [compound 209, 5-Chloro-2,4-dihydroxy-3-[(2E,6E)-7-(5,5-dimethyl-4-oxotetrahydrofuran-2-yl)-3,7-dimethyl-2,6-heptadienyl]benzaldehyde]
87 to 88 °C |  |  |  | COC(=O)CCCCCCCCCc1c(O)c(Cl)c(C)c(C=O)c1O [215-12-COOMe, Methyl 10-(3-chloro-5-formyl-2,6-dihydroxy-4-methylphenyl)decanate]
120 to 121 °C |  |  |  | CC(C)=CCC/C(C)=C/Cc1c(O)cc(C)c(C=O)c1O [compound 216, (E)-2,4-Dihydroxy-3-(3,7-dimethyl-2,6-octadienyl)-6-methylbenzaldehyde]
62 °C |  |  |  | Cc1c(Cl)c(O)c(CCCCCCCCCOC(=O)C(C)(C)C)c(O)c1C=O [215-13-OPiv, 9-(3-Chloro-5-formyl-2,6-dihydroxy-4-methylphenyl)nonyl pivalate]
